Source: ChEMBL document CHEMBL5260805, “Therapeutic journey of 2,4-thiazolidinediones as a versatile scaffold: An insight into structure activity relationship” (Eur J Med Chem, 2017)
In brackets after ≈: the same amount, converted by molar mass.

Legend:
Mus musculus [1] = species: Mus musculus; assay: Hypoglycemic activity in KKAY mouse assessed as reduction in blood glucose level; type: functional
Mus musculus [2] = species: Mus musculus; assay: Hypolipidemic activity in KKAY mouse assessed as reduction in triglyceride level; type: functional
Mus musculus [3] = assay: Hypoglycemic activity in db/db mouse assessed as reduction in blood glucose level at 100 mg/kg/day; type: functional
Mus musculus [4] = assay: Hypoglycemic activity in C57BL/6J db/db mouse assessed as reduction in blood glucose level at 50 mg/kg after 3 days; type: functional; set-up: scale not given: the % may be the effect or the level left; conditions: time 3 day
Mus musculus [5] = assay: Hypolipidemic activity in C57BL/6J db/db mouse assessed as reduction in triglyceride level at 200 mg/kg; type: functional; set-up: scale not given: the % may be the effect or the level left
Nakaseomyces glabratus = assay: Antifungal activity against Candida glabrata; type: functional
Candida parapsilosis = assay: Antifungal activity against Candida parapsilosis; type: functional; conditions: Lodderomyces parapsilosis
Pichia kudriavzevii = assay: Antifungal activity against Candida krusei; type: functional
Candida albicans = assay: Antifungal activity against Candida albicans; type: functional
Mus musculus [6] = assay: Hypoglycemic activity in db/db mouse assessed as reduction in blood glucose level at 10 mg/kg; type: functional; set-up: scale not given: the % may be the effect or the level left
Mus musculus [7] = assay: Hypolipidemic activity in db/db mouse assessed as reduction in triglyceride level at 10 mg/kg; type: functional; set-up: scale not given: the % may be the effect or the level left
[8] = molecular target: Hexokinase-4 (Homo sapiens) (UniProt P35557); assay: Agonist activity at glucokinase (unknown origin) assessed as fold increase at 10 uM by luciferase reporter gene assay; conditions: filed as agonist
[9] = molecular target: Peroxisome proliferator-activated receptor gamma (Homo sapiens) (UniProt P37231); assay: Agonist activity at PPARgamma (unknown origin) assessed as fold increase at 10 uM by luciferase reporter gene assay; conditions: filed as agonist
[10] = molecular target: Xanthine dehydrogenase/oxidase (Homo sapiens, UniProt P47989); assay: Inhibition of human milk xanthine oxidase relative to control
[11] = Inhibition of bovine lens ALR2; type: tissue-based, Bos taurus
Mus musculus [12] = assay: Hypoglycemic activity in db/db mouse assessed as reduction in blood glucose level at 30 mg/kg/day, po administered for 6 days; type: functional; set-up: scale not given: the % may be the effect or the level left; conditions: time 6 day
Mus musculus [13] = assay: Hypolipidemic activity in db/db mouse assessed as reduction in triglyceride level at 30 mg/kg/day, po administered for 6 days; type: functional; set-up: scale not given: the % may be the effect or the level left; conditions: time 6 day
Mus musculus [14] = species: Mus musculus; assay: Antihyperglycemic activity in sucrose loaded mouse model assessed as decrease in blood glucose level; type: functional; set-up: scale not given: the % may be the effect or the level left
Escherichia coli [15] = assay: Antibacterial activity against Escherichia coli; type: functional
[16] = molecular target: Human immunodeficiency virus type 1 reverse transcriptase (Human immunodeficiency virus 1) (UniProt Q72547); assay: Inhibition of HIV-1 reverse transcriptase relative to control; conditions: concentration not given here
Aspergillus niger [17] = assay: Antifungal activity against Aspergillus niger; type: functional
Salmonella typhimurium = assay: Antibacterial activity against Salmonella typhimurium; type: functional, Salmonella enterica subsp. enterica serovar Typhimurium; conditions: Salmonella enterica
Klebsiella pneumoniae = assay: Antibacterial activity against Klebsiella pneumoniae; type: functional
Pseudomonas aeruginosa [18] = assay: Antibacterial activity against Pseudomonas aeruginosa; type: functional
Bacillus subtilis = assay: Antibacterial activity against Bacillus subtilis; type: functional
[19] = molecular target: Human immunodeficiency virus type 1 reverse transcriptase (Human immunodeficiency virus 1, UniProt Q72547); assay: Inhibition of HIV-1 reverse transcriptase
Rattus norvegicus [20] = species: Rattus norvegicus; assay: Hypolipidemic activity in alloxan induced diabetic rat model assessed as increase in HDL; type: functional
Rattus norvegicus [21] = species: Rattus norvegicus; assay: Hypolipidemic activity in alloxan induced diabetic rat model assessed as increase in HDL/LDL ratio; type: functional
[22] = molecular target: Peroxisome proliferator-activated receptor gamma (Homo sapiens) (UniProt P37231); assay: Transactivation of PPARgamma (unknown origin) expressed in HEK293 cells at 10 uM after 24 hrs by luminometer assay; type: cell-based; conditions: filed as activator
RAW264.7 = assay: Inhibition of LPS-induced NO production in mouse RAW264.7 cells; type: functional
Staphylococcus aureus [23] = assay: Antibacterial activity against Staphylococcus aureus; type: functional
Rattus norvegicus [24] = species: Rattus norvegicus; assay: Antidiabetic activity in Wistar rat assessed as increase in glucose uptake in absence of insulin after 45 mins; type: functional; conditions: 0.75 h
Rattus norvegicus [25] = species: Rattus norvegicus; assay: Antidiabetic activity in Wistar rat assessed as increase in glucose uptake in presence of insulin after 45 mins; type: functional; conditions: 0.75 h
Rattus norvegicus [26] = species: Rattus norvegicus; assay: Antidiabetic activity in Wistar rat assessed as reduction in blood glucose level after 120 mins; type: functional; conditions: 2 h
Staphylococcus aureus [27] = assay: Antibacterial activity against Staphylococcus aureus ATCC 9144; type: functional
Pseudomonas aeruginosa [28] = assay: Antibacterial activity against Pseudomonas aeruginosa […]; type: functional
Aspergillus fumigatus = assay: […] activity against Aspergillus fumigatus ATCC-46645; type: functional
Aspergillus niger [29] = assay: […] activity against Aspergillus niger ATCC-9029; type: functional
[30] = system: Staphylococcus epidermidis; assay: Antibacterial activity against Staphylococcus epidermidis ATCC-155; type: functional
Escherichia coli [31] = assay: Antibacterial activity against Escherichia coli ATCC 25922; type: functional
[32] = molecular target: Peroxisome proliferator-activated receptor gamma (Homo sapiens, UniProt P37231); assay: Agonist activity at human PPARgamma transfected in HEK293 cells assessed increase in luciferase activity incubated for 24 hrs; type: cell-based
[33] = Inhibition of bacterial peptide deformylase; set-up: species or system Bacteria
[34] = Bacillus subtilis, read-out: MIC

## CN(CCOc1ccc(CC2SC(=O)NC2=O)cc1)c1cc(-c2ccccc2)ccn1 (stereo unspecified)
Mus musculus [1]
  ED25: 0.02 mg/kg/day
Mus musculus [2]
  ED25: 2.5 mg/kg/day

## Cc1c(C)c2c(c(C)c1OCc1ccccc1)C(CN1CCC[C@H]1COc1ccc(/C=C3\SC(=O)NC3=O)cc1)C(C)(C)O2 (stereo partly specified)
Mus musculus [3]
  Activity: 8 mM

## O=C1NC(=O)C(Cc2ccc(OCCn3ccc4ccccc43)cc2)S1 (stereo unspecified)
Mus musculus [4]
  Activity: 60%
Mus musculus [5]
  Activity: 77%

## O=C(CN1C(=O)S/C(=C\c2cccc(-c3cc(=O)c4ccccc4o3)c2)C1=O)c1ccc(F)cc1
Nakaseomyces glabratus
  MIC: 6.25 µg/mL (≈ 12.9 µM)
Candida parapsilosis
  MIC: 6.25 µg/mL (≈ 12.9 µM)
Pichia kudriavzevii
  MIC: 6.25 µg/mL (≈ 12.9 µM)
Candida albicans
  MIC: 6.25 µg/mL (≈ 12.9 µM)

## Cc1nn(COc2ccc(CC3SC(=O)NC3=O)cc2)c(=O)c2ccccc12 (stereo unspecified)
Mus musculus [6]
  Activity: 72%
Mus musculus [7]
  Activity: 68%

## CC(C)OC(=O)c1ccc(NC(=O)Cc2ccc(/C=C3\SC(=O)NC3=O)cc2[N+](=O)[O-])nc1
[8]
  fold change (FC): 2.9
[9]
  Activity: 48%

## CCc1ccc(CCOc2ccc(CC3SC(=O)N(CCCCCCC#N)C3=O)cc2)nc1 (stereo unspecified)
[10]
  inhibition (INH): 72%

## O=C(O)CN1C(=O)S/C(=C\c2cccc(Oc3ccccc3)c2)C1=O
[11]
  IC50: 130 nM

## CCc1nc(C)cc(=O)n1CCOc1ccc(CC2SC(=O)NC2=O)cc1 (stereo unspecified)
Mus musculus [12]
  Activity: 73%
Mus musculus [13]
  Activity: 85%

## O=C(CN1C(=O)S/C(=C\c2cccc(-c3cc(=O)c4ccccc4o3)c2)C1=O)c1ccc([N+](=O)[O-])cc1
Nakaseomyces glabratus
  MIC: 6.25 µg/mL (≈ 12.2 µM)
Candida parapsilosis
  MIC: 6.25 µg/mL (≈ 12.2 µM)
Pichia kudriavzevii
  MIC: 6.25 µg/mL (≈ 12.2 µM)
Candida albicans
  MIC: 6.25 µg/mL (≈ 12.2 µM)

## CCOC(=O)CN1C(=O)SC(Cc2ccc(OC(C)=O)cc2)C1=O (stereo unspecified)
Mus musculus [14]
  Activity: -26.8%

## CC1(C)S[C@@H]2[C@H](NC(=O)[C@H](N)c3ccccc3)C(=O)N2[C@H]1C(=O)O [AMPICILLIN]
Escherichia coli [15]
  MIC: 100 µg/mL (≈ 286 µM)
Candida albicans
  MIC: 500 µg/mL (≈ 1430 µM)

## Cc1ccc(C)c(/C=C2\SC(=O)N(CCC(=O)Nc3ccccc3O)C2=O)c1
[16]
  inhibition: 73%
Escherichia coli [15]
  MIC: 6.25 µg/mL (≈ 15.8 µM)
Aspergillus niger [17]
  MIC: 25 µg/mL (≈ 63.1 µM)
Salmonella typhimurium
  MIC: 6.25 µg/mL (≈ 15.8 µM)
Klebsiella pneumoniae
  MIC: 6.25 µg/mL (≈ 15.8 µM)
Pseudomonas aeruginosa [18]
  MIC: 6.25 µg/mL (≈ 15.8 µM)
Bacillus subtilis; [34]
  MIC: 6.25 µg/mL (≈ 15.8 µM)
Candida albicans
  MIC: 12.5 µg/mL (≈ 31.5 µM)
[19]
  IC50: 1310 nM

## CN(CCOc1ccc(CC2SC(=O)NC2=O)cc1)Cc1nc(N2CCOCC2)nc(N2CCOCC2)n1 (stereo unspecified)
Rattus norvegicus [20]
  Activity: 3.16%
Rattus norvegicus [21]
  Ratio: 4.02

## CN(C)C(=N)NC(=N)N [METFORMIN]
Mus musculus [14]
  Activity: -34.1%

## COc1cc(Br)cc(CC2SC(=O)NC2=O)c1CC(=O)O (stereo unspecified)
[22]
  Activity: 65%

## CC(C)c1ccc(N(C)CCOc2ccc(CC3SC(=O)NC3=O)cc2)cc1 (stereo unspecified)
RAW264.7
  inhibition (INH): 51.5%

## O=C(O)c1cn(C2CC2)c2cc(N3CCNCC3)c(F)cc2c1=O [CIPROFLOXACIN]
Staphylococcus aureus [23]
  MIC: 0.78 µg/mL (≈ 2.35 µM)
Salmonella typhimurium
  MIC: 0.78 µg/mL (≈ 2.35 µM)
Pseudomonas aeruginosa [18]
  MIC: 0.78 µg/mL (≈ 2.35 µM)
Bacillus subtilis; [34]
  MIC: 0.78 µg/mL (≈ 2.35 µM)

## CCOC(=O)CN1C(=O)SC(Cc2ccc(O)cc2)C1=O (stereo unspecified)
Mus musculus [14]
  Activity: -26.7%

## CN(CCOc1ccc(CC2SC(=O)NC2=O)cc1)c1ccccn1 (stereo unspecified) [ROSIGLITAZONE]
Rattus norvegicus [24]
  Activity: 36 mg/dL
Rattus norvegicus [25]
  Activity: 50.5 mg/dL
Mus musculus [1]
  ED25: 4.1 mg/kg/day
Mus musculus [12]
  Activity: 65%
Mus musculus [2]
  ED25: > 30 mg/kg/day
Mus musculus [13]
  Activity: 41%
Mus musculus [14]
  Activity: -11.6%

## OC(Cn1cncn1)(Cn1cncn1)c1ccc(F)cc1F [FLUCONAZOLE]
Aspergillus niger [17]
  MIC: 12.5 µg/mL (≈ 40.8 µM)
Candida albicans
  MIC: 12.5 µg/mL (≈ 40.8 µM)

## CCc1ccc(CCOc2ccc(CC3SC(=O)NC3=O)cc2)nc1 (stereo unspecified) [PIOGLITAZONE]
Mus musculus [6]
  Activity: 46.2%
Mus musculus [7]
  Activity: 46.9%
Rattus norvegicus [26]
  Activity: 115 mg/dL

## COC(=O)CN1C(=O)S/C(=C\c2cn(CC(=O)OC)cn2)C1=O
Staphylococcus aureus [27]
  MIC: 3.8 µg/mL (≈ 11.2 µM)
Pseudomonas aeruginosa [28]
  MIC: 2.8 µg/mL (≈ 8.25 µM)
Aspergillus fumigatus
  MIC: 1.7 µg/mL (≈ 5.01 µM)
Aspergillus niger [29]
  MIC: 7.9 µg/mL (≈ 23.3 µM)
[30]
  MIC: 2.2 µg/mL (≈ 6.48 µM)
Escherichia coli [31]
  MIC: 1.6 µg/mL (≈ 4.72 µM)

## O=C(CN1C(=O)S/C(=C\c2ccc(Br)cc2)C1=O)Nc1ccc(C(=O)O)cc1
Rattus norvegicus [24]
  Activity: 34.71 mg/dL
Rattus norvegicus [25]
  Activity: 47.65 mg/dL

## COc1cc(/C=C2\SC(=O)NC2=O)cc(OC)c1OC
Escherichia coli [15]
  MIC: 250 µg/mL (≈ 847 µM)
Staphylococcus aureus [23]
  MIC: 200 µg/mL (≈ 677 µM)

## COC(=O)/C(=C\c1cc(OC)cc(OC)c1)c1ccc(Oc2ccc(CC3SC(=O)NC3=O)cc2)cc1 (stereo unspecified)
[32]
  EC50: 284 nM

## COc1cc(/C=C2\SC(=O)N(CC(=O)O)C2=O)cc(OC)c1OC
Rattus norvegicus [26]
  Activity: 104 mg/dL

## N#Cc1ccccc1-c1ccc(CN2C(=O)S/C(=C\c3c(Cl)cccc3Cl)C2=O)cc1
Escherichia coli [15]
  MIC: 63.6 µg/mL (≈ 137 µM)
Bacillus subtilis
  MIC: 100 µg/mL (≈ 215 µM)
Bacillus subtilis; [34]
  MIC: 63.6 µg/mL (≈ 137 µM)
[33]
  IC50: 132000 nM
